How the values were obtained:
[1] = biological target: T1, BRD3 BD2 (Homo sapiens, UniProt Q15059); experiment: Binding assay, BRD3 BD2 to acetylated histone H4 Peptide-Biotin (EPIgeneous Binding Domain Kit B); settings: test compound at 300 nmol/L; read-out: Binding inhibition percentage BRD3 BD2
T1 construct: BRD2 BD2, BRD3 BD2 and BRD4 BD2 (Cisbio); purchased Cisbio
Experimental: (§1) Moreover, BRD2 BD2, BRD3 BD2 and BRD4 BD2 (Cisbio), Peptide-Biotin (AnaSpec), and EPIgeneous (registered trademark) Binding Domain Kit B (Cisbio) were used to carry out an assay. That is, per well, 4 μL of BRD2 BD2, BRD3 BD2 or BRD4 BD2, which was adjusted to 20 nmol/L with Diluent buffer; 4 μL of 250 nmol/L Peptide-Biotin; 2 μL of Dilution buffer (Cisbio) containing DMSO or a test compound that was serially diluted with DMSO; 5 μL of 25 nmol/L Streptavidin-XL665; 5 μL of Anti-Gst-Eu+^3+ Cryptate Conjugate 50-fold diluted with Detection Buffer were added to a 384-well plate (Corning).
(§2) The obtained mixture was left at rest at room temperature for 20 hours, and thereafter, the fluoresence intensity at 665 nm and 620 nm was measured using Envision plate reader (Perkin Elmer), so that the inhibition percentage (%) of the test compound against the binding of a bromodomain in a bromodomain-containing protein to Peptide-Biotin was calculated. Binding inhibition percentage (%)=[1−{(fluorescence intensity at 665 nm of test compound−added well)/(fluorescence intensity at 620 nm of test compound−added well)}/{(fluorescence intensity at 665 nm of DMSO−added well)/(fluorescence intensity at 665 nm of DMSO−added well)}]×100
(§3) Moreover, using Graphpad prism 5 (GraphPad software), 50% inhibitory concentration [IC50 (nmol/L)] was calculated according to a non-linear regression analysis (log (inhibitor) vs. response—Variable slope (four parameters)).
(§4) Regarding other test compounds, each compound was diluted with DMSO to a final concentration of 300 nmol/L by the same method as that described above, and the binding inhibition percentage (%) of each test compound at 300 nmol/L against the binding of bromodomain in a bromodomain-containing protein to acetylated histone was calculated.

[2] = biological target: T2, BRD4 BD1 (Homo sapiens, UniProt O60885); experiment: Binding assay, BRD4 BD1 to acetylated histone H4 Peptide-Biotin (EPIgeneous Binding Domain Kit A); settings: test compound at 300 nmol/L; read-out: Binding inhibition percentage BRD4 BD1
T2 construct: BRD2 BD1, BRD3 BD1 and BRD4 BD1 (Cisbio); purchased Cisbio
Experimental: (§5) BRD2 BD1, BRD3 BD1 and BRD4 BD1 (Cisbio), [Lys(Ac)5/8/12/16]-Histone H4(1-25)-GSGSK (Biotin) (hereinafter referred to as “Peptide-Biotin,” AnaSpec), and EPIgeneous (registered trademark) Binding Domain Kit A (Cisbio) were used to carry out an assay. That is to say, per well, 4 μL of BRD2 BD1, BRD3 BD1 or BRD4 BD1, which was adjusted to 20 nmol/L with Diluent buffer; 4 μL of 25 nmol/L Peptide-Biotin; 2 μL of Dilution buffer (Cisbio) containing dimethyl sulfoxide (DMSO) or a test compound that was serially diluted with DMSO; 5 μL of 2.5 nmol/L Streptavidin-d2; and 5 μL of Anti-Gst-Eu+^3+ Cryptate Conjugate 50-fold diluted with Detection Buffer were added to a 384-well plate (Corning).
as §2, §3, §4

[3] = biological target: T3, BRD2 BD2 (Homo sapiens, UniProt P25440); experiment: Binding assay, BRD2 BD2 to acetylated histone H4 Peptide-Biotin (EPIgeneous Binding Domain Kit B); settings: test compound at 300 nmol/L; read-out: Binding inhibition percentage BRD2 BD2
T3 construct: BRD2 BD2, BRD3 BD2 and BRD4 BD2 (Cisbio); purchased Cisbio
Experimental: as §1, §2, §3, §4

[4] = biological target: T4, BRD3 BD1 (Homo sapiens, UniProt Q15059); experiment: Binding assay, BRD3 BD1 to acetylated histone H4 Peptide-Biotin (EPIgeneous Binding Domain Kit A); settings: test compound at 300 nmol/L; read-out: Binding inhibition percentage BRD3 BD1
T4 construct: BRD2 BD1, BRD3 BD1 and BRD4 BD1 (Cisbio); purchased Cisbio
Experimental: as §5, §2, §3, §4

[5] = biological target: T5, BRD4 BD2 (Homo sapiens, UniProt O60885); experiment: Binding assay, BRD4 BD2 to acetylated histone H4 Peptide-Biotin (EPIgeneous Binding Domain Kit B); settings: test compound at 300 nmol/L; read-out: Binding inhibition percentage BRD4 BD2
T5 construct: BRD2 BD2, BRD3 BD2 and BRD4 BD2 (Cisbio); purchased Cisbio
Experimental: as §1, §2, §3, §4

[6] = biological target: T6, BRD2 BD1 (Homo sapiens, UniProt P25440); experiment: Binding assay, BRD2 BD1 to acetylated histone H4 Peptide-Biotin (EPIgeneous Binding Domain Kit A); settings: test compound at 300 nmol/L; read-out: Binding inhibition percentage BRD2 BD1
T6 construct: BRD2 BD1, BRD3 BD1 and BRD4 BD1 (Cisbio); purchased Cisbio
Experimental: as §5, §2, §3, §4

T4 sequence (Q15059 34-140 limits assumed): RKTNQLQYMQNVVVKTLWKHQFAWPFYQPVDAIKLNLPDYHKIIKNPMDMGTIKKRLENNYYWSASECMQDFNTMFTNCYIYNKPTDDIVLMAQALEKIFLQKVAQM
T6 sequence (P25440 74-180 limits assumed): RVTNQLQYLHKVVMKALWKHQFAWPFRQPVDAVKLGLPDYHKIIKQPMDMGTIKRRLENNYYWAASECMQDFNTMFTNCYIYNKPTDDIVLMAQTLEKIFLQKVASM
T3 sequence (P25440 344-453 limits assumed): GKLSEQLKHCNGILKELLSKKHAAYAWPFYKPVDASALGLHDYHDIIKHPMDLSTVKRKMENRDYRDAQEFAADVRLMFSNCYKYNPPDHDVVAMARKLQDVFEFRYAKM
T1 sequence (Q15059 306-415 limits assumed): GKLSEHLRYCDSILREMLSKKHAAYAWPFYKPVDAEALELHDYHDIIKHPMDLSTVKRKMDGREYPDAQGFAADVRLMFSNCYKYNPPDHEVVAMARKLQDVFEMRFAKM

SMILES | inhibition at 0.3 µM [1] [%] | inhibition at 0.3 µM [2] [%] | inhibition at 0.3 µM [3] [%] | inhibition at 0.3 µM [4] [%] | inhibition at 0.3 µM [5] [%] | inhibition at 0.3 µM [6] [%]
CCn1c(=O)cc(C2CC2)c2cc(N(C)C(=O)c3ccccc3)ccc21 [Example 2, N-(4-cyclopropyl-1-ethyl-2-oxo-1,2-dihydroquinolin-6-yl)-N-methylbenzamide] | 91 | 85 | 89 | 85 | 86 | 52
CCn1c(=O)cc(N2CCOCC2)c2cc(-n3c(-c4ccccc4)c[nH]c3=O)ccc21 [Example 3, 1-ethyl-4-(morpholin-4-yl)-6-(2-oxo-5-phenyl-2,3-dihydro-1H-imidazol-1-yl)quinolin-2(1H)-one] | 91 | 94 | 89 | 94 | 89 | 91
CCN1CCC(c2cc(=O)n(CC)c3ccc(C(=O)N(C)c4ccccc4)cc23)CC1 [Example 8, 1-ethyl-4-(1-ethylpiperidin-4-yl)-N-methyl-2-oxo-N-phenyl-1,2-dihydroquinoline-6-carboxamide] | 67 | 94 | 79 | 94 | 74 | 93
CCn1c(=O)cc(C(C)C)c2cc(N(C)C(=O)c3ccc(Cl)cc3)ccc21 [Example 16, 4-Chloro-N-(1-ethyl-2-oxo-4-(propan-2-yl)-1,2-dihydroquinolin-6-yl)-N-methylbenzamide] | 92 | 70 | 87 | 79 | 88 | 44
CCn1c(=O)cc(N2CCOCC2)c2cc(-c3cnn(C)c3-c3ccccc3)ccc21 [Example 18, 1-Ethyl-6-(1-methyl-5-phenyl-1H-pyrazol-4-yl)-4-(morpholin-4-yl)quinolin-2(1H)-one] | 88 | 94 | 86 | 93 | 85 | 89
CCn1c(=O)cc(C2CCN(CCO)CC2)c2cc(C(=O)N(C)c3ccc4c(c3)CCCC4)ccc21 [Example 179, 1-ethyl-4-(1-(2-hydroxyethyl)piperidin-4-yl)-N-methyl-2-oxo-N-(5,6,7,8-tetrahydronaphthalen-2-yl)-1,2-dihydroquinoline-6-carboxamide] | 92 | 95 | 88 | 94 | 88 | 93
CCn1c(=O)cc(C2CCN(C(=O)C(C)C)CC2)c2cc(C(=O)N(C)c3ccc(C)cc3)ccc21 [Example 183, 1-ethyl-N-methyl-N-(4-methylphenyl)-4-(1-(2-methylpropanoyl)piperidin-4-yl)-2-oxo-1,2-dihydroquinoline-6-carboxamide] | 80 | 94 | 71 | 92 | 83 | 81
CCn1c(=O)cc(C2CCN(CCO)CC2)c2cc(C(=O)N(C)c3ccc4c(c3)CCCCC4)ccc21 [Example 191] | 92 | 94 | 87 | 95 | 88 | 94
Cc1ccc(N(C)C(=O)c2ccc3c(c2)c(C2CCN(C)CC2)cc(=O)n3C)cc1 [Example 235, N,1-dimethyl-N-(4-methylphenyl)-4-(1-methylpiperidin-4-yl)-2-oxo-1,2-dihydroquinoline-6-carboxamide] | 89 | 95 | 82 | 94 | 87 | 94

More lines, now with the values ahead:

inhibition at 0.3 µM [1] [%] | inhibition at 0.3 µM [2] [%] | inhibition at 0.3 µM [3] [%] | inhibition at 0.3 µM [4] [%] | inhibition at 0.3 µM [5] [%] | inhibition at 0.3 µM [6] [%] | SMILES
91 | 95 | 90 | 95 | 90 | 93 | CCn1c(=O)cc(C2CC2)c2cc(-n3c(=O)[nH]c(=O)n3-c3ccccc3)ccc21 [Example 248, 1-(4-cyclopropyl-1-ethyl-2-oxo-1,2-dihydroquinolin-6-yl)-2-phenyl-1,2,4-triazolidine-3,5-dione]
92 | 91 | 88 | 91 | 88 | 74 | CCn1c(=O)cc(N2CCOCC2)c2cc(N(C)C(=O)c3ccc(Cl)cc3)ccc21 [Example 250, 4-chloro-N-(1-ethyl-4-(morpholin-4-yl)-2-oxo-1,2-dihydroquinolin-6-yl)-N-methylbenzamide]
90 | 94 | 86 | 92 | 88 | 82 | CCn1c(=O)cc(C2CC2)c2cc(-c3nc(C)nn3-c3ccccc3)ccc21 [Example 252, 4-cyclopropyl-1-ethyl-6-(3-methyl-1-phenyl-1H-1,2,4-triazol-5-yl)quinolin-2(1H)-one]
89 | 92 | 87 | 90 | 85 | 70 | CCn1c(=O)cc(N2CCOCC2)c2cc(N3C(=O)CC[C@H]3c3ccccc3)ccc21 [Example 253, 1-ethyl-4-(morpholin-4-yl)-6-((5S)-2-oxo-5-phenylpyrrolidin-1-yl)quinolin-2(1H)-one]
90 | 94 | 89 | 92 | 87 | 79 | CCn1c(=O)cc(N2CCOCC2)c2cc(-n3ccnc3-c3ccccc3)ccc21 [Example 255, 1-ethyl-4-(morpholin-4-yl)-6-(2-phenyl-1H-imidazol-1-yl)quinolin-2(1H)-one]
92 | 94 | 86 | 93 | 88 | 84 | CCn1c(=O)cc(N2CCOCC2)c2cc(-n3cc(C)nc3-c3ccccc3)ccc21 [Example 256, 1-ethyl-6-(4-methyl-2-phenyl-1H-imidazol-1-yl)-4-(morpholin-4-yl)quinolin-2(1H)-one]
91 | 95 | 85 | 92 | 88 | 84 | CCn1c(=O)cc(N2CCOCC2)c2cc(-c3nccn3-c3ccccc3)ccc21 [Example 257, 1-ethyl-4-(morpholin-4-yl)-6-(1-phenyl-1H-imidazol-2-yl)quinolin-2(1H)-one]
83 | 64 | 81 | 67 | 72 | 26 | CCn1c(=O)cc(N2CCOCC2)c2cc(-c3ccccc3-c3ccccc3)ccc21 [Example 258, 6-(biphenyl-2-yl)-1-ethyl-4-(morpholin-4-yl)quinolin-2(1H)-one]
91 | 94 | 87 | 93 | 88 | 88 | CCn1c(=O)cc(N2CCOCC2)c2cc(-n3c(-c4ccccc4)cn(CCN4CCOCC4)c3=O)ccc21 [Example 260]

— patent US10987349B2, “Antitumor agent and bromodomain inhibitor” (FUJIFILM Corporation, priority 2016, dated 2021)
